Experimental data taken from US20120178915A1, “PYRIMIDINE DERIVATIVES AND ANALOGS, PREPARATION METHOD AND USE THEREOF” (priority 2009, published 2012).
Values after ≈ are worked out from the molar mass of the structure shown. Like-named read-outs stand apart in the source and are kept apart here.

How the values were obtained:
[1] = test system: Staphylococcus aureus 43300 (MRSA); experiment: microbe, parasite or virus in culture; type: cell-based; details: 24 h, read-out: Minimum Inhibitory Concentration, MIC
[2] = test system: Enterococcus faecalis 583 (VRE); experiment: microbe, parasite or virus in culture; type: cell-based; details: 24 h, read-out: Minimum Inhibitory Concentration, MIC
[3] = test system: Enterococcus faecalis 1513 (VRE); experiment: microbe, parasite or virus in culture; type: cell-based; details: 24 h, read-out: Minimum Inhibitory Concentration, MIC
[4] = test system: Streptococcus pneumoniae M2; experiment: microbe, parasite or virus in culture; type: cell-based; details: 37° C., 24 h, read-out: Minimum Inhibitory Concentration, MIC
[5] = test system: Streptococcus pneumoniae 6301; experiment: microbe, parasite or virus in culture; type: cell-based; details: 37° C., 24 h, read-out: Minimum Inhibitory Concentration, MIC
[6] = test system: Bacillus subtilis 168; experiment: microbe, parasite or virus in culture; type: cell-based; details: 37° C., 24 h, read-out: Minimum Inhibitory Concentration, MIC
[7] = test system: Streptococcus 10342; experiment: MIC broth microdilution; type: cell-based; details: 37° C., 24 h, read-out: Minimum Inhibitory Concentration, MIC
[8] = test system: Streptococcus pneumoniae 62; experiment: microbe, parasite or virus in culture; type: cell-based; details: 37° C., 24 h, read-out: Minimum Inhibitory Concentration, MIC
[9] = test system: Enterococcus faecalis 51299; experiment: microbe, parasite or virus in culture; type: cell-based; details: Enterococcus faecalis, 51299, 24 h, read-out: Minimum Inhibitory Concentration, MIC
[10] = test system: Staphylococcus aureus 29231; experiment: microbe, parasite or virus in culture; type: cell-based; details: 37° C., 24 h, read-out: Minimum Inhibitory Concentration, MIC
[11] = test system: Enterococcus faecalis 19433; experiment: microbe, parasite or virus in culture; type: cell-based; details: 37° C., 24 h, read-out: Minimum Inhibitory Concentration, MIC
[12] = test system: Bacillus cereus 246; experiment: microbe, parasite or virus in culture; type: cell-based; details: 37° C., 24 h, read-out: Minimum Inhibitory Concentration, MIC
[13] = test system: Streptococcus pneumoniae 10351; experiment: microbe, parasite or virus in culture; type: cell-based; details: 37° C., 24 h, read-out: Minimum Inhibitory Concentration, MIC
[14] = test system: Staphylococcus aureus 705 (MRSA); experiment: microbe, parasite or virus in culture; type: cell-based; details: 24 h, read-out: Minimum Inhibitory Concentration, MIC
[15] = test system: Enterococcus faecalis F2518 (VRE); experiment: microbe, parasite or virus in culture; type: cell-based; details: 24 h, read-out: Minimum Inhibitory Concentration, MIC
[16] = test system: Enterococcus fecal F631 (VRE); experiment: organism not typed; type: cell-based; details: 24 h, read-out: Minimum Inhibitory Concentration, MIC
[17] = test system: Enterococcus faecalis 29212; experiment: microbe, parasite or virus in culture; type: cell-based; details: 37° C., 24 h, read-out: Minimum Inhibitory Concentration, MIC
[18] = test system: Pyogenic Streptococcus; experiment: microbe, parasite or virus in culture; type: cell-based; details: 37° C., 24 h, read-out: Minimum Inhibitory Concentration, MIC
[19] = test system: Staphylococcus aureus 703 (MRSA); experiment: microbe, parasite or virus in culture; type: cell-based; details: 24 h, read-out: Minimum Inhibitory Concentration, MIC
[20] = MIC broth microdilution; type: cell-based; details: Microorganism 33, Dermatophytosis; 37° C., 24 h; read-out: Minimum Inhibitory Concentration, MIC
[21] = test system: Corynebacterium diphtheriae; experiment: microbe, parasite or virus in culture; type: cell-based; details: 37° C., 24 h, read-out: Minimum Inhibitory Concentration, MIC
[22] = test system: Clostridium perfringens; experiment: microbe, parasite or virus in culture; type: cell-based; details: 24 h, read-out: Minimum Inhibitory Concentration, MIC
[23] = test system: Streptococcus pneumoniae 6303 (PRSP); experiment: microbe, parasite or virus in culture; type: cell-based; details: 24 h, read-out: Minimum Inhibitory Concentration, MIC
[24] = test system: Bacillus anthracis 1; experiment: microbe, parasite or virus in culture; type: cell-based; details: Bacillus anthracis, 1, 24 h, read-out: Minimum Inhibitory Concentration, MIC
[25] = test system: green Streptococcus 1009; experiment: microbe, parasite or virus in culture; type: cell-based; details: 37° C., 24 h, read-out: Minimum Inhibitory Concentration, MIC
[26] = test system: Streptococcus agalactiae B; experiment: microbe, parasite or virus in culture; type: cell-based; details: 37° C., 24 h, read-out: Minimum Inhibitory Concentration, MIC
[27] = test system: Streptococcus bovis 10035; experiment: microbe, parasite or virus in culture; type: cell-based; details: Streptococcus equinus, 37° C., 24 h, read-out: Minimum Inhibitory Concentration, MIC
[28] = test system: Staphylococcus aureus 704 (MRSA); experiment: microbe, parasite or virus in culture; type: cell-based; details: 24 h, read-out: Minimum Inhibitory Concentration, MIC
[29] = test system: Oral candidiasis; experiment: MIC broth microdilution; type: cell-based; details: Microorganism 32, Oral candidiasis; 37° C., 24 h; read-out: Minimum Inhibitory Concentration, MIC
[30] = test system: Clostridium tetani; experiment: microbe, parasite or virus in culture; type: cell-based; details: 24 h
[31] = test system: Bacillus cereus 2; experiment: microbe, parasite or virus in culture; type: cell-based; details: 37° C., 24 h, read-out: Minimum Inhibitory Concentration, MIC
[32] = test system: Bacillus subtilis 82; experiment: microbe, parasite or virus in culture; type: cell-based; details: 37° C., 24 h, read-out: Minimum Inhibitory Concentration, MIC
[33] = test system: MRSA 2152; experiment: Antibacterial studies in vivo, survival of mice infected with MRSA 2152; details: dose mg/kg: ciprofloxacin 20, 3: 30, 7: 40, 21: 50, 33: 25, 70: 70
[34] = read-out: Minimum Inhibitory Concentration, MIC, Microorganism 29, Clostridium tetani, 37° C.
[35] = read-out: Minimum Inhibitory Concentration, MIC, Microorganism 30, Clostridium tetani (second line of that name), 37° C.

Structure (SMILES)	MIC [1]	MIC [2]	MIC [3]	MIC [4]	MIC [5]	MIC [6]	MIC [7]	MIC [8]	MIC [9]	MIC [10]	MIC [11]	MIC [12]	MIC [13]	MIC [14]	MIC [15]	MIC [16]	MIC [17]	MIC [18]	MIC [19]	MIC [20]	other results
Nc1nc(-c2ccccc2)nc2c1cnn2-c1ccccc1 [Compound 38]	210 µM (≈ 60.4 µg/mL)	160 µM (≈ 46.1 µg/mL)	150 µM (≈ 43.2 µg/mL)	156 µM (≈ 44.9 µg/mL)	141 µM (≈ 40.4 µg/mL)	212 µM (≈ 61.1 µg/mL)	131 µM (≈ 37.7 µg/mL)	140 µM (≈ 40.4 µg/mL)	106 µM (≈ 30.6 µg/mL)	100 µM (≈ 28.8 µg/mL)	108 µM (≈ 31.2 µg/mL)	154 µM (≈ 44.3 µg/mL)	136 µM (≈ 39.2 µg/mL)	210 µM (≈ 60.4 µg/mL)	116 µM (≈ 33.2 µg/mL)	151 µM (≈ 43.4 µg/mL)	145 µM (≈ 41.7 µg/mL)	126 µM (≈ 36.3 µg/mL)	215 µM (≈ 61.8 µg/mL)	121 µM (≈ 34.8 µg/mL)	MIC [21]: 150 µM (≈ 43.2 µg/mL); MIC [22]: 125 µM (≈ 35.9 µg/mL); MIC [23]: 125 µM (≈ 35.9 µg/mL); MIC [24]: 266 µM (≈ 76.4 µg/mL); MIC [25]: 101 µM (≈ 29.1 µg/mL); MIC [26]: 105 µM (≈ 30.2 µg/mL); MIC [27]: 121 µM (≈ 34.9 µg/mL); MIC [28]: 160 µM (≈ 46.1 µg/mL); MIC [29]: 150 µM (≈ 43.2 µg/mL); MIC [30, 34]: 160 µM (≈ 46.1 µg/mL); MIC [30, 35]: 120 µM (≈ 34.6 µg/mL); MIC [31]: 124 µM (≈ 35.5 µg/mL); MIC [32]: 120 µM (≈ 34.5 µg/mL)
Cc1nn2c(=O)c(C)c(-c3ccc(C#N)cc3)[nH]c2c1-c1ccc(C(F)(F)F)cc1 [Compound 33]	0.55 µM (≈ 0.225 µg/mL)	2.5 µM (≈ 1.02 µg/mL)	5 µM (≈ 2.04 µg/mL)	1.25 µM (≈ 0.51 µg/mL)	2.5 µM (≈ 1.02 µg/mL)	1.25 µM (≈ 0.51 µg/mL)	0.3 µM (≈ 0.123 µg/mL)	0.63 µM (≈ 0.257 µg/mL)	2.5 µM (≈ 1.02 µg/mL)	0.63 µM (≈ 0.257 µg/mL)	5 µM (≈ 2.04 µg/mL)	1.25 µM (≈ 0.51 µg/mL)	0.04 µM (≈ 0.0163 µg/mL)	0.33 µM (≈ 0.135 µg/mL)	2.5 µM (≈ 1.02 µg/mL)	0.63 µM (≈ 0.257 µg/mL)	2.5 µM (≈ 1.02 µg/mL)	0.63 µM (≈ 0.257 µg/mL)	0.42 µM (≈ 0.172 µg/mL)	53.6 µM (≈ 21.9 µg/mL)	MIC [21]: 80.3 µM (≈ 32.8 µg/mL); MIC [22]: 31.2 µM (≈ 12.7 µg/mL); MIC [23]: 1.3 µM (≈ 0.531 µg/mL); MIC [24]: 35.6 µM (≈ 14.5 µg/mL); MIC [25]: 0.3 µM (≈ 0.123 µg/mL); MIC [26]: 0.56 µM (≈ 0.229 µg/mL); MIC [27]: 10.5 µM (≈ 4.29 µg/mL); MIC [28]: 0.28 µM (≈ 0.114 µg/mL); MIC [29]: 126 µM (≈ 51.3 µg/mL); Survival rate (%) (life prolongation rate) ([33]; (survival days of test group − blank group)/blank group ×100%, MRSA 2152 mice, tail vein): 169.2%; Survival ([33]; mice inoculated intraperitoneally with MRSA 2152, test compound by tail vein, repeated after six hours, saline 1.3 days): 3.5 days; MIC [30, 34]: 60.3 µM (≈ 24.6 µg/mL); MIC [30, 35]: 50.6 µM (≈ 20.7 µg/mL); MIC [31]: 1.25 µM (≈ 0.51 µg/mL); MIC [32]: 0.31 µM (≈ 0.127 µg/mL)
